# Entries after “also recorded” stand apart in the source; their conditions may differ.
# Assays:
# [1] = biological target: T1, Aquaporin Z (AQPZ) (Escherichia coli, UniProt P60844); assay: Phospholipid binding to AQPZ resolved by native MS / IM-MS in C8E4; set-up: species or system E. coli; conditions: AQPZ in C8E4; optimised P:L:D ratio of Table 2
# [2] = biological target: T2, ammonia channel (AmtB) (Escherichia coli, UniProt P69681); assay: Phospholipid binding to AmtB resolved by native MS / IM-MS in C8E4; set-up: species or system E. coli
# T2 sequence (P69681 26-428): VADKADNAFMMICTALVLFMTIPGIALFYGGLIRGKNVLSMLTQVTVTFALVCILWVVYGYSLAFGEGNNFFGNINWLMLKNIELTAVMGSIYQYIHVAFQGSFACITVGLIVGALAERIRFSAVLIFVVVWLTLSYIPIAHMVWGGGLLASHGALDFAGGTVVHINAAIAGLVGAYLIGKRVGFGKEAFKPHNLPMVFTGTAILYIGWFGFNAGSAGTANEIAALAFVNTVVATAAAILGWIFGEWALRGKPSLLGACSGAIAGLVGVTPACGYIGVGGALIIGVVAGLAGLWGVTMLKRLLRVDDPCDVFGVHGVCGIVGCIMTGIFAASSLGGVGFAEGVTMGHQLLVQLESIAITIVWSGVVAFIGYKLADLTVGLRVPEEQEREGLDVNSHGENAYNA
# [3] = biological target: T3, mechanosensitive channel of large conductance (MscL) (Mycobacterium tuberculosis, UniProt P9WJN5); assay: Phospholipid binding to MscL resolved by native MS / IM-MS in C8E4; conditions: optimised P:L:D ratio of Table 2
# T3 sequence (P9WJN5 1-151): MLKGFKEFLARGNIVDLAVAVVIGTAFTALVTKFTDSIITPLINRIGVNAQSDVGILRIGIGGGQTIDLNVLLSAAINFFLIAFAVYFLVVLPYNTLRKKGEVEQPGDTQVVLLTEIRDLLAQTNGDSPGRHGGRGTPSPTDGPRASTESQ
# [4] = biological target: T1, Aquaporin Z (AQPZ); assay: Gas-phase (collision-induced) unfolding IM-MS: stabilisation of AQPZ by bound phospholipid; assay type: binding, E. coli; conditions: +13 charge state, versus apo form
# Description: (§1) IM-MS was used to resolve individual phospholipid-bound states of membrane proteins, in folded conformations, devoid of the complication of the lipid bilayer. Bound phospholipids were then ranked based on their ability to prevent gas-phase unfolding. Combining the IM-MS data for the three protein complexes with molecular dynamic (MD) simulations, probable lipid binding sites were then identified.
# Ion mobility measurements were performed on a modified Synapt G1 HDMS instrument with the travelling-wave on mobility cell replaced by an 18-cm drift cell with radial RF on confinement and a linear voltage gradient to direct ions along the axis of transmission to the time-of-flight (TOF) mass analyser. […] The mobility release time was set at 200 μs with a trap voltage of 30 V and extract voltage of 10 V. Pressure and temperature of the ion mobility cell was measured directly. Ion drift time (td) was determined as described in Bush et al (Analytical Chemistry, 2010, 82, 9557-.9565). […]
# To extract quantitative values for the effects of phospholipid binding on unfolding pathways, an established equilibrium unfolding model, used extensively in solution studies involving chemical denaturation, was applied. […]
# [5] = biological target: T2, ammonia channel (AmtB); assay: Gas-phase (collision-induced) unfolding IM-MS: stabilisation of AmtB by bound phospholipid; assay type: binding, E. coli; conditions: +15 charge state, versus apo form
# Description: as §1
# Ion mobility measurements were performed on a modified Synapt G1 HDMS instrument with the travelling-wave on mobility cell replaced by an 18-cm drift cell with radial RF on confinement and a linear voltage gradient to direct ions along the axis of transmission to the time-of-flight (TOF) mass analyser. Ion mobility mass spectrometer was typically set to a source pressure of 5-7 mBar, capillary voltage of 1.4-1.7 kV, capillary nanoflow of 0.03-0.2 mBar and argon as collision gas with flow rate set to 5-8 mL/min (˜6.6-6.7 e-2 mBar). Collision voltage ranged from 2-240 V with measurements taken at 5 V and 2 V steps for monitoring gas-phase unfolding of membrane and soluble protein complexes, respectively. The sample and extraction cone and trap bias voltages, quadrupole profile, and collision gas pressure were optimized for maximal ion intensity of the target membrane protein complex. Helium was the drift cell gas and set to a pressure of ˜1.6-1.8 Torr (40 ml/min flow rate). Pusher time, pulse width and TDC inhibit were set to 180, 7 and 7 μs, respectively. The ion guide/source (300 ms^−1, 10 V), trap (300 ms^−1, 0.2 V) and transfer (100 ms^−1, 10 V) travelling wave velocities and wave heights were kept constant. The mobility release time was set at 200 μs with a trap voltage of 30 V and extract voltage of 10 V. Pressure and temperature of the ion mobility cell was measured directly. Ion drift time (td) was determined as described in Bush et al (Analytical Chemistry, 2010, 82, 9557-.9565).
# Ion mobility data were imported using a custom script provided by Waters at an m/z resolution of four in drift data and one in mass spectra for fitting. Mass spectra were smoothed and theoretical mass spectra were fitted as outlined above. A standardized integration window was employed for extracting arrival time distributions (ATD) using a resolution (R=[…]) of 1000 and a height cut-off of 25% for the modelled Gaussian to the respective m/z peak. […]
# To extract quantitative values for the effects of phospholipid binding on unfolding pathways, an established equilibrium unfolding model, used extensively in solution studies involving chemical denaturation, was applied. […] By comparing the apo form of the protein with lipid bound states, the average stabilisation was calculated by fitting the unfolding pathway for the most abundant charge state, identifying four distinct intermediate states. […]
# T1 sequence (P60844 whole entry): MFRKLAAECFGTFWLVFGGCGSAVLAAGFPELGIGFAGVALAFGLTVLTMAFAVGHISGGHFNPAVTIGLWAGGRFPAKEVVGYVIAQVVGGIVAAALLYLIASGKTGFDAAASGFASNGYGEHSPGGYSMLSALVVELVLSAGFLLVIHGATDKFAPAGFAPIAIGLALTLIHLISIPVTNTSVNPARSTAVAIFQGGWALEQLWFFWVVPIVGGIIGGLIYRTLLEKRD
substance,measurement,setting,value
Cardiolipin (E. coli) [CDL],# Bound (number of resolvable phospholipids bound),[1],1
same,# Bound (number of resolvable phospholipids bound),"[2]; AmtB in C8E4, optimised P:L:D ratio of Table 2",1
same,extent of phospholipid binding to AmtB,"[2]; in words, co-transport into the gas phase",only low populations
same,# Bound (number of resolvable phospholipids bound),[3],1
same,average stabilisation of AQPZ by bound phospholipid (resistance to gas-phase unfolding),[4],substantial increase in protein stability compared to all other phospholipids; also recorded: stabilises AQPZ significantly
same,average stabilisation of AmtB by bound phospholipid (resistance to gas-phase unfolding),[5],significant stabilisation
